Assay results from patent publication US8450308B2 (Vitae Pharmaceuticals, Inc., priority 2008, dated 2013).
Like-named read-outs stand apart in the source and are kept apart here.

Assays:
[1] = BACE cell assay: soluble Amyloid Beta 1-40 (Aβ 1-40) in culture media of H4-APPsw cells; type: cell-based
Description: H4 neuroglioma cell line that stably expresses Amyloid Precursor Protein (APP) containing the KM-NL Swedish mutation (H4-APPsw) was generated. For the assay, cells are treated overnight in the presence of inhibitor and the culture media are subjected to ELISA analysis of soluble Amyloid Beta 1-40 (Aβ 1-40).
H4 neuroglioma cell line was cultured in DMEM with 10% FBS and 1% penicillin/streptomycin (Culture Medium) at 37° C., 5% CO2. […] 24 hrs after transfection, the cells were replaced into three new plates (150 mm) in fresh Culture Medium with 250 ug/ml Zeocin. […] The levels of APPsw expression were analyzed by immunoblotting and the production of Aβ 1-40 was detected by ELISA of culture supernatants. The selected clones are maintained in Culture Medium with 250 μg/ml Zeocin and routinely split in 3-4 days to maintain 20-80% confluence.
Split cells. Split H4-APPsw cells in Culture Medium and culture overnight such that cells will be ˜80% confluent next morning.
Create Compound Dilution Plate. After determining the desired final concentration of compound to be tested, create a 500× dilution plate. Add DMSO, but not inhibitor, to each well of Column 1. […] Add compounds of interest at 500× desired final concentration to wells A3-A10. Add DMSO, but not inhibitor, to each well of Columns 11 and 12. Dilute contents of Row A 1:3 in Row B. then continue through Rows C—H.
Create Media Plate. To create a 2× solution of compound in media, add 996 μL Culture Medium to each well of a 96-well 2 ml deep well plate (Media Plate) in biosafety hood. Add 4 μL 5 mM control compound to Media Plate wells A1-D1 for determination of full inhibition.
Add media to Cell Plate. With a multichannel pipettor, mix each well of Media Plate several times to insure homogeneity. Add 100 μL of mixture to Black polymer bottom P-D-L plates. Next, place Medium Plate and Cell Plate in the incubator.
Add cells to Cell Plate. Trypsinize and count H4-APPsw cells. Dilute cells 6×10^5 cells/ml in Culture Medium and remove Cell Plate from incubator. Vortex cells to homogeneity, then using a multichannel repeating pipettor, add 100 μL cell suspension to Cell Plate, adding cells from Row H to Row A. Place Cell Plate in incubator.
Change media in Cell Plate. After 5 h, check Cell Plate by microscope to insure cells are attached. In culture hood, remove media from Cell Plate using multichannel repeating pipettor. Add 100 μl Culture Medium to each well. Remove Media Plate from incubator and mix with pipettor as previous. Add 100 μl from each well of Media Plate to corresponding well in Cell Plate. Place Cell Plate in incubator overnight.
Perform ELISA to determine levels of secreted Aβ 1-40. After 16 h incubation, spin Cell Plate for 8 min at 1200 rpm. The primary reading of Aβ 1-40 levels is done using PerkinElmer AlphaLISA technology. Follow the manufacturer's protocol for performing AlphaLISA in a white ½ area Optiwell plate using Row 12 for peptide standard (1:2 dilutions, starting at 15 ng/ml). Data are acquired using PerkinElmer Fusion-Alpha FP-HT, Alpha protocol (Count Time 0.6 s, Count Time Ratio 30%:70%).
Export data from Fusion using Columnar Report format into a separate file for each plate. Upload data into Activity Base using RIA-DOSE-RESPONSE protocol (Version 1). Data from at least eight doses were fitted to a four parameter logistical model using XLfit software to determine potency.

[2] = target: T1, truncated human beta-secretase (residues 1-458, His6-tagged at the C-terminus) (Homo sapiens, UniProt P56817); assay: BACE fluorescence quench assay; type: biochemical; conditions: in vitro enzyme activity, BACE fluorescence assay, pH 4.5; read-out: IC50
T1 construct: truncated human beta-secretase (residues 1-458, His6-tagged at the C-terminus); His6 (C); made in house; host or cells: insect cells D. melanogaster S2 (baculovirus expression system (so in the source))

[3] = in vitro cell activity, H4-APPsw cells, secreted Aβ 1-40, overnight treatment, read-out: IC50

T1 sequence (P56817 22-458): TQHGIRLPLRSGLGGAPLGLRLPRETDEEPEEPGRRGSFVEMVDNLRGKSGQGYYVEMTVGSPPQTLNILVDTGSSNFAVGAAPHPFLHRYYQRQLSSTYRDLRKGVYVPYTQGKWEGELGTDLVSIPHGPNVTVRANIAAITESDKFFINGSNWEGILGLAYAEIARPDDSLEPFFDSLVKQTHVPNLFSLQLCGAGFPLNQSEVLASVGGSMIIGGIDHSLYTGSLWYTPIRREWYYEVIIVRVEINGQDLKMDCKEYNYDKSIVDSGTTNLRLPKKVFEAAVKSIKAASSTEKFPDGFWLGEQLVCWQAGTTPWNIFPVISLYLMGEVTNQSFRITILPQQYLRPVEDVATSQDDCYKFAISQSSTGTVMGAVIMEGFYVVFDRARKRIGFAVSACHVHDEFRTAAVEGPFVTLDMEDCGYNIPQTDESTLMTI

| Compound | IC50 [1, 3] | also measured |
| --- | --- | --- |
| CN1C(=O)C2(C[C@H](C3CCCc4ccccc43)Oc3ccc(-c4cccc(C#N)c4)cc32)N=C1N (stereo in doubt) [Compound 188, 3-(2′-amino-1′-methyl-5′-oxo-2-(1,2,3,4-tetrahydronaphthalen-1-yl)-1′,5′-dihydrospiro[chroman-4,4′-imidazole]-6-yl)benzonitrile] | 0.1 to 0.5 µM |  |
| CN1OC2(CC3(CCCc4ccccc4C3)Oc3ccc(-c4cc(C#N)cc(C#N)c4)cc32)N=C1N (stereo not drawn) [Compound 178] | 0.001 to 0.1 µM |  |
| CN1C(=O)C2(CC3(CCCc4ccccc4C3)Oc3ccc(-c4cccc(C#N)c4)cc32)N=C1N (stereo not drawn) [Compound 179] | 0.001 to 0.1 µM |  |
| CN1OC2(CC(C3CCCc4ccccc43)Oc3ccc(-c4cc(C#N)cc(C#N)c4)cc32)N=C1N (stereo not drawn) [Compound 180] | 0.1 to 0.5 µM |  |
| CN1OC2(CC3(CCCc4ccccc4C3)Oc3ccc(-c4cccnc4)cc32)N=C1N (stereo not drawn) [Compound 181] | 0.001 to 0.1 µM |  |
| CN1C(=O)C2(CC(C3CCOC(C)(C)C3)Oc3ccc(-c4ccc(F)c(C#N)c4)cc32)N=C1N (stereo not drawn) [Compound 182] | 0.001 to 0.1 µM |  |
| CN1C(=O)C2(CC(C3CCOC(C)(C)C3)Oc3ccc(-c4cc(Cl)cc(C#N)c4)cc32)N=C1N (stereo not drawn) [Compound 183] | 0.001 to 0.1 µM |  |
| CN1C(=O)C2(CC(C3CCOC(C)(C)C3)Oc3ccc(-c4cccc(OC(F)(F)F)c4)cc32)N=C1N (stereo not drawn) [Compound 184] | 0.001 to 0.1 µM |  |
| CN1C(=O)C2(CC(C3CCOC(C)(C)C3)Oc3ccc(-c4cc(C#N)cc(C#N)c4)cc32)N=C1N (stereo not drawn) [Compound 185] | 0.001 to 0.1 µM |  |
| CN1OC2(CC3(CCCc4ccccc4C3)Oc3ccc(-c4cc(F)cc(C#N)c4)cc32)N=C1N (stereo not drawn) [Compound 186] | 0.5 to 1 µM |  |
| CN1C(=O)[C@@]2(C[C@@H](C3CCOC(C)(C)C3)Oc3ccc(-c4ccc(F)c(Cl)c4)cc32)N=C1N (stereo partly drawn) [Compound 187] | 0.001 to 0.1 µM |  |
| CN1OC2(CC3(CCCc4ccccc4C3)Oc3ccc(-c4cccc(Cl)c4)cc32)N=C1N (stereo not drawn) [Compound 189] | 0.5 to 1 µM |  |
| CN1C(=O)C2(C[C@H](C3CCOC(C)(C)C3)Oc3ccc(-c4cc(F)cc(Cl)c4)cc32)N=C1N (stereo partly drawn) [Compound 190] | 0.001 to 0.1 µM |  |
| CN1OC2(CC3(CCCc4ccccc4C3)Oc3ccc(-c4cc(Cl)cc(C#N)c4)cc32)N=C1N (stereo not drawn) [Compound 191] | 0.1 to 0.5 µM |  |
| CN1OC2(CC3(CCCc4ccccc4C3)Oc3ccc(-c4ccc(F)c(Cl)c4)cc32)N=C1N (stereo not drawn) [Compound 192] | 0.5 to 1 µM |  |
| COc1cc(Cl)cc(-c2ccc3c(c2)C2(CC(C4CCOC(C)(C)C4)O3)N=C(N)N(C)C2=O)c1 (stereo not drawn) [Compound 193] | 0.001 to 0.1 µM |  |
| CN1C(=O)C2(CC(C3CCOC(C)(C)C3)Oc3ccc(-c4cc(F)cc(C#N)c4)cc32)N=C1N (stereo not drawn) [Compound 194] | 0.001 to 0.1 µM |  |
| CN1C(=O)C2(CC(C3CCOC(C)(C)C3)Oc3ccc(-c4cc(F)cc(C(F)(F)F)c4)cc32)N=C1N (stereo not drawn) [Compound 195] | 0.001 to 0.1 µM |  |
| CN1C(=O)C2(CC(C3CCOC(C)(C)C3)Oc3ccc(-c4cc(Cl)cc(Cl)c4)cc32)N=C1N (stereo not drawn) [Compound 196] | 0.001 to 0.1 µM |  |
| CN1C(=O)C2(CC(C3CCOC(C)(C)C3)Oc3ccc(-c4cccc(Cl)c4)cc32)N=C1N (stereo not drawn) [Compound 197] | 0.001 to 0.1 µM |  |
| CN1OC2(CC(C3CCCc4ccccc43)Oc3ccc(-c4cc(F)cc(C#N)c4)cc32)N=C1N (stereo not drawn) [Compound 198] | 1 to 5 µM |  |
| CN1OC2(CC3(CCCc4ccccc4C3)Oc3ccc(-c4ccc(F)c(C#N)c4)cc32)N=C1N (stereo not drawn) [Compound 199] | 0.1 to 0.5 µM |  |
| CN1C(=O)C2(CC(C3CCOC(C)(C)C3)Oc3ccc(-c4cccc(C(F)(F)F)c4)cc32)N=C1N (stereo not drawn) [Compound 200] | 0.001 to 0.1 µM |  |
| CN1O[C@@]2(C[C@@H](C3CCCc4ccccc43)Oc3ccc(-c4ccc(F)c(C#N)c4)cc32)N=C1N (stereo partly drawn) [Compound 201] | 1 to 5 µM |  |
| CN1C(=O)[C@@]2(C[C@]3(CCCOC3)Oc3ccc(-c4cc(Cl)cc(Cl)c4)cc32)N=C1N [Compound 202] | 0.001 to 0.1 µM |  |
| CN1C(=O)[C@@]2(C[C@]3(CCCOC3)Oc3ccc(-c4cc(Cl)cc(C#N)c4)cc32)N=C1N [Compound 203] | 0.001 to 0.1 µM |  |

| Compound | IC50 [1, 3] | also measured |
| --- | --- | --- |
| CN1OC2(CC(C3COCc4ccccc43)Oc3ccc(-c4cccc(C#N)c4)cc32)N=C1N (stereo not drawn) [Compound 204] | 1 to 5 µM |  |
| CN1O[C@@]2(C[C@]3(CCCc4ccccc4C3)Oc3ccc(-c4cccc(C#N)c4)cc32)N=C1N [Compound 205] | 0.1 to 0.5 µM |  |
| CN1C(=O)C2(CC(C34CCC(CC3)OC4)Oc3ccc(-c4cccc(C#N)c4)cc32)N=C1N (stereo not drawn) [Compound 206] | 0.1 to 0.5 µM |  |
| CN1O[C@@]2(C[C@@H]([C@H]3CCOC(C)(C)C3)Oc3ccc(-c4cccc(C#N)c4)cc32)N=C1N [Compound 207] | 0.1 to 0.5 µM |  |
| CN1OC2(CC(C3CCCc4ccccc43)Oc3ccc(-c4cc(Cl)cc(C#N)c4)cc32)N=C1N (stereo not drawn) [Compound 208] | 1 to 5 µM |  |
| CN1O[C@@]2(C[C@@]3(CCCc4ccccc4C3)Oc3ccc(-c4cccc(C#N)c4)cc32)N=C1N [Compound 209] | 1 to 5 µM |  |
| CN1O[C@]2(C[C@H]([C@@H]3CCOC(C)(C)C3)Oc3ccc(-c4cccc(C#N)c4)cc32)N=C1N [Compound 211] | 0.1 to 0.5 µM |  |
| CN1C(=O)C2(CC(C3CCOC(C)(C)C3)Oc3ccc(-c4cccc(C#N)c4F)cc32)N=C1N (stereo not drawn) [Compound 212] | 0.001 to 0.1 µM |  |
| CN1C(=O)C2(CC(C3CCOC(C)(C)C3)Oc3ccc(-c4cc(C#N)cc(C(F)(F)F)c4)cc32)N=C1N (stereo not drawn) [Compound 213] | 0.001 to 0.1 µM |  |
| COc1cc(Cl)cc(-c2ccc3c(c2)[C@]2(C[C@]4(CCCOC4)O3)N=C(N)N(C)C2=O)c1 [Compound 214] | 0.001 to 0.1 µM |  |
| CN1C(=O)[C@@]2(C[C@]3(CCCOC3)Oc3ccc(-c4cc(F)cc(Cl)c4)cc32)N=C1N [Compound 215] | 0.1 to 0.5 µM |  |
| CN1C(=O)[C@@]2(C[C@]3(CCCOC3)Oc3ccc(-c4cc(C#N)cc(C(F)(F)F)c4)cc32)N=C1N [Compound 216] | 0.001 to 0.1 µM |  |
| CN1OC2(CC3(CCCc4ccccc4C3)Oc3ccc(-c4cccc(C#N)c4)cc32)N=C1N (stereo not drawn) [Compound 217] |  | IC50 [1]: 0.1 to 0.5 µM |
| CN1C(=O)C2(CC(C3CCOC(C)(C)C3)Oc3ccc(-c4cc(C#N)ccc4F)cc32)N=C1N (stereo not drawn) [Compound 218] | 0.001 to 0.1 µM |  |
| CN1O[C@]2(C[C@]3(CCCc4ccccc4C3)Oc3ccc(-c4cccc(C#N)c4)cc32)N=C1N [Compound 220] | 0.1 to 0.5 µM |  |
| CN1O[C@@]2(C[C@H](C3CCCc4ccccc43)Oc3ccc(-c4ccc(F)c(C#N)c4)cc32)N=C1N (stereo partly drawn) [Compound 221] | 1 to 5 µM |  |
| Cc1ccc(C#N)cc1-c1ccc2c(c1)[C@]1(C[C@H](C3CCOC(C)(C)C3)O2)N=C(N)N(C)C1=O (stereo partly drawn) [Compound 222] | 0.001 to 0.1 µM |  |
| COc1cc(C#N)cc(-c2ccc3c(c2)C2(CC4(CCCOC4)O3)N=C(N)N(C)C2=O)c1 (stereo not drawn) [Compound 223] | 0.001 to 0.1 µM |  |
| CN1C(=O)[C@@]2(C[C@]3(CCCOC3)Oc3ccc(-c4cccc(Cl)c4)cc32)N=C1N [Compound 224] | 0.1 to 0.5 µM |  |
| COc1cccc2c1CCCC1(C2)CC2(N=C(N)N(C)O2)c2cc(-c3cccc(C#N)c3)ccc2O1 (stereo not drawn) [Compound 225] | 0.5 to 1 µM |  |
| CN1OC2(CC(C3CCc4ccccc43)Oc3ccc(-c4cccc(C#N)c4)cc32)N=C1N (stereo not drawn) [Compound 226] | 1 to 5 µM |  |
| CN1OC2(CC3(CCCc4ccccc4C3)Oc3ccc(-c4cc(F)cc(Cl)c4)cc32)N=C1N (stereo not drawn) [Compound 227] | 1 to 5 µM |  |
| CN1O[C@]2(C[C@@]3(CCCc4ccccc4C3)Oc3ccc(-c4cccc(C#N)c4)cc32)N=C1N [Compound 228] | 0.5 to 1 µM |  |
| CN1C(=O)[C@@]2(C[C@@]3(CCCOC3)Oc3ccc(-c4ccc5cn[nH]c5c4)cc32)N=C1N [Compound 457] |  | IC50 [2]: 10 to 50 µM |
| COc1ccc(-c2ccc3c(c2)[C@]2(C[C@@]4(CCCOC4)O3)N=C(N)N(C)C2=O)cc1OC [Compound 458] |  | IC50 [2]: 10 to 50 µM |
